Experimental data from patent publication US12275732B2, “Cyclic compounds as receptor modulating therapeutics and methods and uses thereof” (Bionomics Limited, priority 2018, dated 2025).

Experiment: A2B permeability (Papp) in MDCK-MDR1 cell monolayers
Type: in vitro ADME
Conditions: dog, MDCK-MDR1 monolayer, apical to basolateral (A-B), 10 μM test compound, HBSS pH 7.4, duplicate
Description: Permeability Data for Compounds was Collected Using the Following Experimental Procedure:
MDCK-MDR1 cells obtained from the NIH (Rockville, Md., USA) are used between passage numbers 6-30. Cells are seeded onto Millipore Multiscreen Transwell plates at 3.4×10^5 cells/cm2. The cells are cultured in DMEM and media is changed on day 3. On day 4 the permeability study is performed. Cell culture and assay incubations are carried out at 37° C. in an atmosphere of 5% CO2 with a relative humidity of 95%. On the day of the assay, the monolayers are prepared by rinsing both apical and basolateral surfaces twice with Hanks Balanced Salt Solution (HBSS) at the desired pH warmed to 37° C. Cells are then incubated with HBSS at the desired pH in both apical and basolateral compartments for 40 min to stabilise physiological parameters.
The dosing solutions are prepared by diluting test compound with assay buffer to give a final test compound concentration of 10 μM (final DMSO concentration of 1% v/v). The fluorescent integrity marker lucifer yellow is also included in the dosing solution. Analytical standards are prepared from test compound DMSO dilutions and transferred to buffer, maintaining a 1% v/v DMSO concentration.
Typical assay buffer is composed of supplemented HBSS pH 7.4 but a range of other buffers and pH values can be used.
For assessment of A-B permeability, HBSS is removed from the apical compartment and replaced with test compound dosing solution. The apical compartment insert is then placed into a companion plate containing fresh buffer (containing 1% v/v DMSO). For assessment of B-A permeability, HBSS is removed from the companion plate and replaced with test compound dosing solution. Fresh buffer (containing 1% v/v DMSO) is added to the apical compartment insert, which is then placed into the companion plate.
At 60 min the apical compartment inserts and the companion plates are separated and apical and basolateral samples diluted for analysis.
Test compound permeability is assessed in duplicate. Compounds of known permeability characteristics are run as controls on each assay plate.
Test and control compounds are quantified by LC-MS/MS cassette analysis using a 7-point calibration with appropriate dilution of the samples. Cyprotex generic analytical conditions are used. The starting concentration (CO) is determined from the dosing solution and the experimental recovery calculated from CO and both apical and basolateral compartment concentrations.
The integrity of the monolayer throughout the experiment is checked by monitoring lucifer yellow permeation using fluorimetric analysis. Lucifer yellow permeation is high if monolayers have been damaged. If a lucifer yellow Papp value is above a pre-defined threshold in one well, but the derived Papp result for test compound or marker compound in that well is qualitatively similar to that determined in the remaining replicate well (within the lucifer yellow threshold) then, based upon the scientific judgment of the responsible scientist, the cell monolayer may be considered acceptable. If this is not the case, then the result from the affected monolayer is excluded and an n=1 result is reported, or the compound may be retested. If lucifer yellow Papp values are above the threshold in both replicate wells for a test compound, the compound is re-tested. If this re-occurs upon repeat in both wells then toxicity or inherent fluorescence of the test compound is assumed. No further experiments are performed in this instance.
The permeability coefficient (Papp) for each compound is calculated from the following equation: […]
Where dQ/dt is the rate of permeation of the drug across the cells, CO is the donor compartment concentration at time zero and A is the area of the cell monolayer. C0 is obtained from analysis of the dosing solution.

| Compound | Papp A→B at 60 min, 10 μM [×10⁻⁶ cm/s] |
| --- | --- |
| CCn1cc(C(=O)N2C3CCCC2COC3)c(=O)c2cc(OC3Cc4ccccc4C3)cnc21 [Example 20, 1-Ethyl-6-indan-2-yloxy-3-(3-oxa-9-azabicyclo[3.3.1]nonane-9-carbonyl)-1,8-naphthyridin-4-one] | 2.01 |
| CCn1cc(C(=O)N2CCOC(C)(C)C2)c(=O)c2cc(OC3Cc4ccccc4C3)cnc21 [Example 4, 3-(2,2-dimethylmorpholine-4-carbonyl)-1-ethyl-6-indan-2-yloxy-1,8-naphthyridin-4-one] | 1.26 |
| CCn1cc(C(=O)N2C3CCC2COC3)c(=O)c2cc(OC3Cc4ccccc4C3)cnc21 [Example 18, 1-Ethyl-6-indan-2-yloxy-3-(3-oxa-8-azabicyclo[3.2.1]octane-8-carbonyl)-1,8-naphthyridin-4-one] | 1.41 |
| CCn1cc(C(=O)N2C3COCC2C3)c(=O)c2cc(OC3Cc4ccccc4C3)cnc21 [Example 16, 1-Ethyl-6-indan-2-yloxy-3-(3-oxa-6-azabicyclo[3.1.1]heptane-6-carbonyl)-1,8-naphthyridin-4-one] | 2.06 |
| CCn1cc(C(=O)N2CC3(CCOCC3)C2)c(=O)c2cc(OC3Cc4ccccc4C3)cnc21 [Example 23, 1-Ethyl-6-indan-2-yloxy-3-(7-oxa-2-azaspiro[3.5]nonane-2-carbonyl)-1,8-naphthyridin-4-one] | 1.24 |
| CCn1cc(C(=O)N2CCOCC2)c(=O)c2cc(OC3Cc4ccccc4C3)cnc21 [Example 1, 1-Ethyl-6-indan-2-yloxy-3-(morpholine-4-carbonyl)-1,8-naphthyridin-4-one] | 2.19 |
| CCn1cc(C(=O)N2CCOCC2)c(=O)c2cc(OC3Cc4ccccc4C3)nnc21 [Example 52, 8-Ethyl-3-indan-2-yloxy-6-(morpholine-4-carbonyl)pyrido[2,3-c]pyridazin-5-one] | 4.78 |
| CCn1cc(C(=O)N2CCO[C@H](C)C2)c(=O)c2cc(OC3Cc4ccccc4C3)cnc21 [Example 2, 1-Ethyl-6-indan-2-yloxy-3-[(2R)-2-methylmorpholine-4-carbonyl]-1,8-naphthyridin-4-one] | 2.56 |
| CCn1cc(C(=O)N2CCOCC2)c(=O)c2cc(OC3Cc4ccccc4C3)ncc21 [Example 26, 1-Ethyl-6-indan-2-yloxy-3-(morpholine-4-carbonyl)-1,7-naphthyridin-4-one] | 1.56 |
| CCn1cc(C(=O)N2[C@H](C)COC[C@H]2C)c(=O)c2cc(OC3Cc4ccccc4C3)cnc21 [Example 11, 3-[(3R,5R)-3,5-dimethylmorpholine-4-carbonyl]-1-ethyl-6-indan-2-yloxy-1,8-naphthyridin-4-one] | 3.83 |
| CCn1cc(C(=O)N2[C@H](C)COC[C@@H]2C)c(=O)c2cc(OC3Cc4ccccc4C3)cnc21 [Example 10, 3-[(3R,5S)-3,5-dimethylmorpholine-4-carbonyl]-1-ethyl-6-indan-2-yloxy-1,8-naphthyridin-4-one] | 1.99 |
| CCn1cc(C(=O)N2C[C@H](C)O[C@@H](C)C2)c(=O)c2cc(OC3Cc4ccccc4C3)cnc21 [Example 6, 3-[(2S,6S)-2,6-dimethylmorpholine-4-carbonyl]-1-ethyl-6-indan-2-yloxy-1,8-naphthyridin-4-one] | 1.7 |
| CCn1cc(C(=O)N2CC3CCC(C2)O3)c(=O)c2cc(OC3Cc4ccccc4C3)cnc21 [Example 19, 1-Ethyl-6-indan-2-yloxy-3-(8-oxa-3-azabicyclo[3.2.1]octane-3-carbonyl)-1,8-naphthyridin-4-one] | 1.79 |
| CCn1cc(C(=O)N2C[C@H]3C[C@@H]2CO3)c(=O)c2cc(OC3Cc4ccccc4C3)cnc21 [Example 17, 1-Ethyl-6-indan-2-yloxy-3-[(1R,4R)-2-oxa-5-azabicyclo[2.2.1]heptane-5-carbonyl]-1,8-naphthyridin-4-one] | 0.87 |
| CCn1cc(C(=O)N2CC3CCC(C2)O3)c(=O)c2cc(OC3Cc4ccccc4C3)nnc21 [Example 63, 8-Ethyl-3-indan-2-yloxy-6-(8-oxa-3-azabicyclo[3.2.1]octane-3-carbonyl)pyrido[2,3-c]pyridazin-5-one] | 1.55 |
| CCn1cc(C(=O)N2C[C@@H](C)O[C@@H](C)C2)c(=O)c2cc(OC3Cc4ccccc4C3)cnc21 [Example 5, 3-[(2R,6S)-2,6-dimethylmorpholine-4-carbonyl]-1-ethyl-6-indan-2-yloxy-1,8-naphthyridin-4-one] | 3.41 |
| CCn1cc(C(=O)N2CC(C)(C)OC(C)(C)C2)c(=O)c2cc(OC3Cc4ccccc4C3)cnc21 [Example 8, 1-Ethyl-6-indan-2-yloxy-3-(2,2,6,6-tetramethylmorpholine-4-carbonyl)-1,8-naphthyridin-4-one] | 2.65 |
| CCn1cc(C(=O)N2CC3COCC(C3)C2)c(=O)c2cc(OC3Cc4ccccc4C3)nnc21 [Example 65, 8-Ethyl-3-indan-2-yloxy-6-(3-oxa-7-azabicyclo[3.3.1]nonane-7-carbonyl)pyrido[2,3-c]pyridazin-5-one] | 0.98 |
| CCn1cc(C(=O)N2C[C@@H](C)O[C@H](C)C2)c(=O)c2cc(OC3Cc4ccccc4C3)cnc21 [Example 7, 3-[(2R,6R)-2,6-dimethylmorpholine-4-carbonyl]-1-ethyl-6-indan-2-yloxy-1,8-naphthyridin-4-one] | 1.79 |
